Laboratory results: patent EP2848929A1, “Graphene FET-based biosensor” (AIT Austrian Institute of Technology GmbH, priority 2013, dated 2015)
Like-named read-outs stand apart in the source and are kept apart here. One block for each compound: values may come before it.

Legend:
OBP14 [1] = target: T1, OBP14 (Apis mellifera, UniProt A0A8U0WQC3); test: biochemical; type: binding, honeybees; conditions: for binding to OBP14 (in words): qualitative ranking from biosensor results; for kon: read-out: [kon] / M^-1s^-1
OBP14 [2] = target: T1, OBP14; conditions: fluorescent displacement assays, literature; cited from earlier work
[3] = 10^- 6[KD] /M, Table 1, KD = 1/KA from titration, Langmuir model, 1mM PBS, pH = 8.0
[4] = KD, from Langmuir isotherm plot, half saturation concentration (50% surface coverage)
[5] = KD, from the kinetic measurement (titration fitted with Langmuir model)
[6] = Table 1, affinity constant KA = kon/koff from titration, Langmuir model, 1mM PBS, pH = 8.0
[7] = Table 2, affinity constant KA = kon/koff from titration, Langmuir model fit
[8] = Table 2, association rate constant from titration fit
[9] = Table 2, dissociation rate constant from final buffer wash fit, read-out: [ koff] / s^-1
[10] = 10^-6 [KD] /M, Table 2, KD = 1/KA from titration, Langmuir model fit
[11] = dissociation constant of KD, control experiment, eugenol and methyl eugenol on the same sensor device
[12] = 10^2 [KA] /M^-1, Table 2, affinity constant KA = kon/koff from titration, Langmuir model fit

T1 sequence (A0A8U0WQC3 entry or part of it): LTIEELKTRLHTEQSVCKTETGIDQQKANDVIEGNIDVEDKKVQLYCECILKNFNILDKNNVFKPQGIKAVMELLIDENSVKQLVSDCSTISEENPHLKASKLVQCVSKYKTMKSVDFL

Compound: CC(C)=CCCC(C)=CC=O (mixture of isomers) [Citral, (2E)-3,7-dimethylocta-2,6-dienal]
Kd (OBP14 [1]; [3]): 589.2 ± 0.6 µM
Kd (OBP14 [1]; [4]): 550 µM
Kd (OBP14 [1]; [5]): 590 µM
10^2 [KA] /M^-1 (OBP14 [1]; [6]): 16.97 ± 0.02 10^2 M^-1
binding to OBP14 (in words) (OBP14 [1]): moderate or weak binders
koff (OBP14 [1]; read-out: [koff] /s ^-1): 0.0035 s⁻¹

Kd (OBP14 [1]; Table 2, KD = 1/KA from titration, Langmuir model fit, read-out: 10^-6 [KD] /M): 22 ± 4.5 µM
10^2 [KA] /M^-1 (OBP14 [1]; [7]): 479 ± 136 10^2 M^-1
kon (OBP14 [1]; [8]): 239 ± 68 M⁻¹ s⁻¹
koff (OBP14 [1]; [9]): 0.005 s⁻¹
Kd (OBP14 [1]; from Langmuir isotherm of change in drain current ΔIDS vs odorant concentration [Od] (Fig. 1D), read-out: KD): 10 µM
Kd (OBP14 [1]; from Langmuir isotherm plot, half saturation concentration (50% surface coverage), read-out: KD): 24 µM
Kd (OBP14 [1]; from linear relationship between reaction rate constant k and odorant concentration (Fig. 1B), read-out: KD): 30 µM
Kd (OBP14 [1]; from the kinetic measurement (titration fitted with Langmuir model), read-out: KD): 22 µM
Compound: COC(=O)c1ccc(O)c(OC)c1 [Methyl vanillate, Methyl 4-hydroxy-3-methoxybenzoate]

Compound: C=CCc1ccc(O)c(OC)c1 [Eugenol, 4-Allyl-2-methoxyphenol]
koff (OBP14 [1]): 0.003 s⁻¹
real-time response (ΔIDS) of the biosensor (OBP14 [1]; 5 µM eugenol solution compared with a 10 fold higher concentrated methyl eugenol solution, same sensor device): significantly higher
Kd (OBP14 [1]; [3]): 9.2 ± 0.7 µM
Kd (OBP14 [1]; [10]): 9.2 ± 0.7 µM
Kd (OBP14 [1]; [4]): 1.9 µM
Kd (OBP14 [1]; [5]): 9.2 µM
10^2 [KA] /M^-1 (OBP14 [1]; [6]): 1087 ± 91 10^2 M^-1
10^2 [KA] /M^-1 (OBP14 [1]; [7]): 1087 ± 91 10^2 M^-1
Kd (OBP14 [1]; [11]): 19 µM
binding to OBP14 (in words) (OBP14 [1]): high affinity
koff (OBP14 [1]; read-out: [ koff] / s^-1): 0.003 s⁻¹
koff (OBP14 [1]; read-out: [koff] /s ^-1): 0.003 s⁻¹
kon (OBP14 [1]): 326 ± 27 M⁻¹ s⁻¹

Compound: COc1cc(/C=C/C=O)ccc1O [Coniferyl aldehyde, (E)-3-(4-hydroxy-3-methoxyphenyl) prop-2-enal]
affinity to OBP14 (in words) (OBP14 [2]): did not show good affinity
Kd (OBP14 [1]; [12]): 8.06 µM
Kd (OBP14 [1]; [10]): 9.1 ± 2.3 µM
koff (OBP14 [1]; read-out: [ koff] / s^-1): 0.003 s⁻¹
kon (OBP14 [1]): 370 ± 190 M⁻¹ s⁻¹

Compound: COc1cc(CCC(C)=O)ccc1O [Vanillyl acetone, 4-(4-hydroxy-3-methoxyphenyl)butan-2-one]
10^2 [KA] /M^-1 (OBP14 [1]; [7]): 409.7 ± 0.3 10^2 M^-1
Kd (OBP14 [1]; read-out: 10^-6 [KD] /M): 24.4 ± 0.02 µM
koff (OBP14 [1]; read-out: [ koff] / s^-1): 0.007 s⁻¹
kon (OBP14 [1]): 286.8 ± 0.2 M⁻¹ s⁻¹

Compound: COc1cc(CC(=O)O)ccc1O [Homovanillic acid, 2-(4-Hydroxy-3-methoxy-phenyl)acetic acid]
affinity to OBP14 (in words) (OBP14 [2]): did not show good affinity
Kd (OBP14 [1]; [3]): 6.5 ± 0.7 µM
10^2 [KA] /M^-1 (OBP14 [1]; [6]): 1540 ± 140 10^2 M^-1
koff (OBP14 [1]; read-out: [koff] /s ^-1): 0.0078 s⁻¹

Compound: COc1cc(C=O)ccc1O [Vanillin, 4-Hydroxy-3-methoxybenzaldehyd]
Kd (OBP14 [1]; [12]): 20.7 µM
Kd (OBP14 [1]; [10]): 23.8 ± 6 µM
kon (OBP14 [1]; [8]): 191 ± 111 M⁻¹ s⁻¹
koff (OBP14 [1]; [9]): 0.0038 s⁻¹

Kd (OBP14 [1]; [3]): 1410 ± 21 µM
Kd (OBP14 [1]; [4]): 1500 µM
Kd (OBP14 [1]; [5]): 1400 µM
10^2 [KA] /M^-1 (OBP14 [1]; [6]): 7.07 ± 0.11 10^2 M^-1
binding to OBP14 (in words) (OBP14 [1]): behave poorly
koff (OBP14 [1]; read-out: [koff] /s ^-1): 0.0074 s⁻¹
Compound: CC(=O)CCC=C(C)C [Sulcatone, 6-Methylhept-5-en-2-one]

Kd (OBP14 [1]; Table 1, KD = 1/KA from titration, Langmuir model, 1mM PBS, pH = 8.0, read-out: 10^- 6[KD] /M): 814 ± 58 µM
10^2 [KA] /M^-1 (OBP14 [1]; [6]): 12.33 ± 0.86 10^2 M^-1
[kon] /M^1s^-1 (OBP14 [1]; Table 1, association rate constant from titration fit): 8.3 ± 0.6 M^1s^-1
koff (OBP14 [1]; Table 1, dissociation rate constant from final buffer wash fit, read-out: [koff] /s ^-1): 0.0068 s⁻¹
binding to OBP14 (in words) (OBP14 [1]): behave poorly
Compound: CC(=O)OCCC(C)C [Isoamyl acetate, 3-methylbutyl acetate]

Kd (OBP14 [1]; [3]): 1120 ± 5 µM
10^2 [KA] /M^-1 (OBP14 [1]; [6]): 8.96 ± 0.04 10^2 M^-1
binding to OBP14 (in words) (OBP14 [1]): moderate or weak binders
koff (OBP14 [1]; read-out: [koff] /s ^-1): 0.0077 s⁻¹
Compound: CC(C)=CCC/C(C)=C/CO [Geraniol, (2E)-3,7-Dimethylocta-2,6-dien-1-ol]

Compound: C=CCc1ccc(OC)c(OC)c1 [Methyl eugenol, 1,2-Dimethoxy-4-prop-2-enylbenzene]
Kd (OBP14 [1]; [10]): 520 ± 0.1 µM
10^2 [KA] /M^-1 (OBP14 [1]; [7]): 19.23 ± 0.03 10^2 M^-1
kon (OBP14 [1]; [8]): 8.92 ± 0.01 M⁻¹ s⁻¹
koff (OBP14 [1]; [9]): 0.0046 s⁻¹
Kd (OBP14 [1]; [11]): 590 µM
concentration at which equilibrium was achieved, relative to the other odorants (OBP14 [1]; titration curves Fig. 3, compared with three ligands with phenolic based structure): about 10 fold
